Measured values: PubChem BioAssay AID248 (DTP/NCI, 2004)
“And” between values parts separate entries of the source, which are not always exact repeats. Equal values may be shown once. Inconclusive results and toxic doses are left out. No stated cut-off is given here; in the data, active means T/C of 150% or more; inactive means T/C below 125%.

Test system: L1210 leukemia ip in BDF1 mice, survival T/C
Assay: NCI In Vivo Anticancer Drug Screen. Data for tumor model L1210 Leukemia (intraperitoneal) in B6D2F1 (BDF1) mice
Settings: endpoint: mean survival time, higher = longer survival
How it was run: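 Ratio derived from survival: compound-dosed mice over vehicle-dosed mice, all bearing a transplantable tumor.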

[1] = dose: 150.0 mg/kg/injection, schedule: Q01DX001 (ip), vehicle: saline
[2] = dose: 100.0 mg/kg/injection, schedule: Q01DX001 (ip), vehicle: saline
[3] = dose: 200.0 mg/kg/injection, schedule: Q01DX001 (ip), vehicle: saline
[4] = dose: 400.0 mg/kg/injection, schedule: Q01DX001 (ip), vehicle: saline
[5] = dose: 100.0 mg/kg/injection, schedule: Q04DX003 (ip), vehicle: saline with Tween-80
[6] = dose: 100.0 mg/kg/injection, schedule: Q01DX009 (ip), vehicle: saline with Tween-80
[7] = dose: 200.0 mg/kg/injection, schedule: Q01DX009 (ip), vehicle: saline with Tween-80
[8] = dose: 200.0 mg/kg/injection, schedule: Q04DX003 (ip), vehicle: saline with Tween-80
[9] = dose: 400.0 mg/kg/injection, schedule: Q04DX003 (ip), vehicle: saline with Tween-80
[10] = dose: 100.0 mg/kg/injection, schedule: Q04DX003 (ip), vehicle: saline
[11] = dose: 400.0 mg/kg/injection, schedule: Q01DX009 (ip), vehicle: saline with Tween-80

Measured: T/C

C=CCCC1(CCC)C(=O)NC(=O)NC1=O
inactive: dose: 75.0 mg/kg/injection, schedule: Q01DX001 (ip), vehicle: saline 103 % of control | [1] 113 % of control | dose: 300.0 mg/kg/injection, schedule: Q01DX001 (ip), vehicle: saline 101 % of control

COc1ccc(C=NC2C(OC(C)=O)OC(COC(C)=O)C(OC(C)=O)C2OC(C)=O)cc1 (stereo unspecified)
inactive: [2] 98 % of control | [3] 98 % of control | [4] 98 % of control

CC(C)c1ccc(C(O)C2CC2)cc1 (stereo unspecified)
inactive: [5] 94 % of control

OCc1ccc(Cl)cc1Cl
inactive: dose: 50.0 mg/kg/injection, schedule: Q01DX009 (ip), vehicle: saline with Tween-80 107 % of control | [6] 103 % of control | [5] 100 % of control | [7] 103 % of control | [8] 105 % of control | [9] 102 % of control

Clc1ccc(CNc2ccccn2)s1
inactive: [1] 88 % of control

C=CC(=O)NC(C)=O
inactive: dose: 12.5 mg/kg/injection, schedule: Q04DX002 (ip), vehicle: Klucel (hydroxypropylcellulose) (HPC) 103 % of control | dose: 25.0 mg/kg/injection, schedule: Q04DX002 (ip), vehicle: Klucel (hydroxypropylcellulose) (HPC) 92 % of control | dose: 50.0 mg/kg/injection, schedule: Q04DX002 (ip), vehicle: Klucel (hydroxypropylcellulose) (HPC) 95 % of control

C=CC(=O)N(C)OC
inactive: [2] 101 % of control | [10] 100 % of control | [3] 96 % of control | dose: 200.0 mg/kg/injection, schedule: Q04DX003 (ip), vehicle: saline 104 % of control | [4] 112 % of control | dose: 400.0 mg/kg/injection, schedule: Q04DX003 (ip), vehicle: saline 98 % of control

O=c1cc(O)cc(Cl)[nH]1
inactive: [2] 96 % of control | [3] 91 % of control | [4] 96 % of control

CC12CCC(=O)C=C1CC(Sc1ccc(N(CCCl)CCCl)cc1)C1C2CCC2(C)C(O)CCC12 (stereo unspecified)
inactive: dose: 100.0 mg/kg/injection, schedule: Q01DX001 (sc), vehicle: steriod suspending solution 108 % of control | dose: 200.0 mg/kg/injection, schedule: Q01DX001 (sc), vehicle: steriod suspending solution 108 % of control | dose: 400.0 mg/kg/injection, schedule: Q01DX001 (sc), vehicle: steriod suspending solution 100 % of control

C[Se]c1nc2c(=O)[nH]c(N)nc2n1C1OC(CO)C(O)C1O (stereo unspecified)
inactive: dose: 100.0 mg/kg/injection, schedule: Q01DX005 (ip), vehicle: saline 107 % of control | dose: 200.0 mg/kg/injection, schedule: Q01DX005 (ip), vehicle: saline 102 % of control

COc1ccc(Nc2ccnc3cc(Cl)ccc23)cc1CN(CCCl)CCCl
inactive: dose: 0.78 mg/kg/injection, schedule: Q01DX009 (ip), vehicle: saline 115 % of control | dose: 1.1 mg/kg/injection, schedule: Q01DX Z (ip), vehicle: methylcellulose (MC) 110 % of control | dose: 1.25 mg/kg/injection, schedule: Q01DX009 (ip), vehicle: Klucel (hydroxypropylcellulose) (HPC) 110 % of control | dose: 1.56 mg/kg/injection, schedule: Q01DX009 (ip), vehicle: saline 109 % of control | dose: 1.56 mg/kg/injection, schedule: Q04DX003 (ip), vehicle: saline 108 % of control | dose: 1.6 mg/kg/injection, schedule: Q01DX Z (ip), vehicle: methylcellulose (MC) 106 % of control and 118 % of control | dose: 2.4 mg/kg/injection, schedule: Q01DX Z (ip), vehicle: methylcellulose (MC) 117 % of control and 124 % of control | dose: 2.5 mg/kg/injection, schedule: Q01DX001 (ip), vehicle: Klucel (hydroxypropylcellulose) (HPC) 108 % of control | dose: 2.5 mg/kg/injection, schedule: Q01DX009 (ip), vehicle: Klucel (hydroxypropylcellulose) (HPC) 112 % of control | dose: 2.5 mg/kg/injection, schedule: Q04DX003 (ip), vehicle: Klucel (hydroxypropylcellulose) (HPC) 105 % of control | dose: 3.13 mg/kg/injection, schedule: Q01DX009 (ip), vehicle: saline 86 % of control | dose: 3.13 mg/kg/injection, schedule: Q04DX003 (ip), vehicle: saline 106 % of control | dose: 3.6 mg/kg/injection, schedule: Q01DX Z (ip), vehicle: methylcellulose (MC) 110 % of control and 112 % of control | dose: 5.0 mg/kg/injection, schedule: Q01DX001 (ip), vehicle: Klucel (hydroxypropylcellulose) (HPC) 107 % of control | dose: 5.0 mg/kg/injection, schedule: Q04DX003 (ip), vehicle: Klucel (hydroxypropylcellulose) (HPC) 106 % of control | dose: 10.0 mg/kg/injection, schedule: Q01DX001 (ip), vehicle: Klucel (hydroxypropylcellulose) (HPC) 103 % of control | dose: 10.0 mg/kg/injection, schedule: Q04DX003 (ip), vehicle: Klucel (hydroxypropylcellulose) (HPC) 105 % of control | dose: 50.0 mg/kg/injection, schedule: Q01DX001 (ip), vehicle: carboxymethylcellulose (CMC) 106 % of control

c1ccc2c(c1)CC1CCCCN1C2 (stereo unspecified)
inactive: dose: 12.5 mg/kg/injection, schedule: Q01DX001 (ip), vehicle: Klucel (hydroxypropylcellulose) (HPC) 93 % of control | dose: 25.0 mg/kg/injection, schedule: Q01DX001 (ip), vehicle: Klucel (hydroxypropylcellulose) (HPC) 98 % of control | dose: 25.0 mg/kg/injection, schedule: Q01DX009 (ip), vehicle: saline 96 % of control | dose: 50.0 mg/kg/injection, schedule: Q01DX001 (ip), vehicle: Klucel (hydroxypropylcellulose) (HPC) 93 % of control | dose: 50.0 mg/kg/injection, schedule: Q01DX009 (ip), vehicle: saline 106 % of control | [10] 88 % of control

Cc1c(N)c(C)c(-c2c(O)c(Br)c(C)c(O)c2Br)c(C)c1Br
inactive: dose: 100.0 mg/kg/injection, schedule: Q01DX001 (ip), vehicle: Klucel (hydroxypropylcellulose) (HPC) 93 % of control | dose: 100.0 mg/kg/injection, schedule: Q04DX003 (ip), vehicle: Klucel (hydroxypropylcellulose) (HPC) 102 % of control | dose: 200.0 mg/kg/injection, schedule: Q01DX001 (ip), vehicle: Klucel (hydroxypropylcellulose) (HPC) 98 % of control | dose: 200.0 mg/kg/injection, schedule: Q04DX003 (ip), vehicle: Klucel (hydroxypropylcellulose) (HPC) 96 % of control | dose: 400.0 mg/kg/injection, schedule: Q01DX001 (ip), vehicle: Klucel (hydroxypropylcellulose) (HPC) 87 % of control | dose: 400.0 mg/kg/injection, schedule: Q04DX003 (ip), vehicle: Klucel (hydroxypropylcellulose) (HPC) 94 % of control

CN(C)N=Nc1ccc(S(C)(=O)=O)cc1
inactive: dose: 25.0 mg/kg/injection, schedule: Q04DX002 (ip), vehicle: saline with Tween-80 105 % of control | dose: 50.0 mg/kg/injection, schedule: Q04DX002 (ip), vehicle: saline with Tween-80 102 % of control | dose: 100.0 mg/kg/injection, schedule: Q04DX002 (ip), vehicle: saline with Tween-80 102 % of control and 106 % of control | dose: 200.0 mg/kg/injection, schedule: Q04DX002 (ip), vehicle: saline with Tween-80 116 % of control | dose: 400.0 mg/kg/injection, schedule: Q04DX002 (ip), vehicle: saline with Tween-80 97 % of control

O=C(O)CC(NC(=O)OCc1ccccc1)C(=O)OCc1ccccc1 (stereo unspecified)
inactive: [6] 107 % of control | [5] 104 % of control | [7] 93 % of control | [8] 107 % of control | [11] 91 % of control | [9] 96 % of control

CCOC(=O)c1ccc(NC(=O)Oc2cc(C)c(Cl)c(C)c2)cc1
inactive: dose: 100.0 mg/kg/injection, schedule: Q01DX009 (ip), vehicle: Klucel (hydroxypropylcellulose) (HPC) 95 % of control | dose: 200.0 mg/kg/injection, schedule: Q01DX009 (ip), vehicle: Klucel (hydroxypropylcellulose) (HPC) 90 % of control | dose: 400.0 mg/kg/injection, schedule: Q01DX009 (ip), vehicle: Klucel (hydroxypropylcellulose) (HPC) 96 % of control

CC(C)=CCC/C(C)=C/COC(=O)Cc1ccccc1
inactive: [6] 103 % of control | [5] 97 % of control | [7] 110 % of control | [8] 98 % of control | [11] 103 % of control | [9] 103 % of control
